Results on 15 compounds are retold here after patent US6566327B1, “Histogranin peptides and their analgesic use” (University of Ottawa, priority 1997, dated 2003).

Marks after values point to notes of the source that are not given here. Square brackets hold non-standard residues; d marks the D form. Peptide text beside a SMILES is read from it.

For one data set, the system named is Male Swiss Webster mice. Briefly: Mouse acetic acid-induced writhing test (i.c.v. peptides). Format: in vivo. The settings on record: for Potency ratio (95% CL): as compared with HN; for AD50 (nmol/mouse) (95% CL): method #2, percent analgesia; for AD50 (nmol/mouse) (95% CL) / ED50 (nmol/mouse) (95% CL): acetic acid i.p. 5 min after peptide, 95% CL in brackets; for ED50 (nmol/mouse) (95% CL): method #1, percent of mice showing analgesia. As for the experimental part: Mice (male 20-25 g, Swiss Webster) were obtained from Charles River (Canadian Breeding Farm, St. Constant, Quebec). They were housed five per cage in a room with controlled temperature (22±2° C.), humidity and artificial light (06.30-19 h). […] The experiments were authorized by the animal care committee of the University of Ottawa in accordance […] guidelines of the Canadian Council on Animal Care. The i.c.v. administrations of the peptides were performed as described by Shukla et al. (Shukla et al., Brain Res. 591, 176, 1992 the disclosure of which is incorporated by reference). Peptides were dissolved in double-distilled sterile water (vehicle) and 10 μl of the peptide solution or vehicle was delivered gradually within approximately 3 sec. […] The administration site was confirmed by injecting Indian ink in preliminary experiments. Mouse Writhing Test: Antinociceptive activity of the peptides was evaluated using the acetic acid-induced writhing test according to a modification (Shukla et al. Brain Research 591, 176, 1992 the disclosure of which is incorporated by reference) of the method of Hayashi and Takemori (Eur.J. Pharmacol. 16 63, 1971 the disclosure of which is incorporated by reference). […] An abdominal stretch is characterized by the contraction of the abdominal muscles, the arching of the back vent-ally such that the abdomen touches the bedding surface and the extension of one or both hind limbs. Mice were used once and then killed immediately. Groups of 10 mice were used for each dose. […] Biochem. Psycholpharmacol. 8:191, 1974, the disclosure of which is incorporated by reference). […] Pharmacol. Exp. Ther. 96 99, 1949, the disclosure of which is incorporated by reference) using procedure 47 of the computer program of Tallarida and Murray (in “Manual of pharmacological calculations with computer programs”, 2nd ed., Springer, New York, 1987, the disclosure of which is incorporated by reference). In the second case (method #2), the percentage of analgesia is calculated for each dose by the formula: [(mean number of writhes in control group-mean number of writhes for the test group)/(mean number of writhes in control group)×100]. […] Pharmacol. Exp. Ther 96, 99, 1949 the disclosure in which is incorporated by reference) using procedure 47 of the computer program of Tallarida and Murray (in “Manual of pharmacological calculations with computer programs”. 2nd ed., Springer, New York, 1987, the disclosure in which is incorporated by reference).

Data set [1] can be described thus: Solubility noted in the compound description. Format: physicochemical. The settings on record: water and DMSO.

For the compound `N=C(N)NCCC[C@H](NC(=O)CNC(=O)[C@H](CCC(N)=O)NC(=O)[C@@H](N)CCCNC(=N)N)C(=O)O` [Peptide 1, H-Arg-Gln-Gly-Arg-OH] (H-RQGR-OH), the “Potency ratio (95% CL)” value with Male Swiss Webster mice (method #2 (AD50)) is 1.84 (0.3-12.5). In addition, the “AD50 (nmol/mouse) (95% CL)” value in the data set on Male Swiss Webster mice is 12.8 (3.6-46.1) nmol/mouse. The Solubility result in data set [1] is “soluble in water and DMSO”.
Regarding `N=C(N)NCCC[C@H](NC(=O)CNC(=O)[C@H](CCC(N)=O)NC(=O)CN)C(=O)O` [Peptide 2, H-Gly-Gln-Gly-Arg-OH] (H-GQGR-OH), the entries for the “Potency ratio (95% CL)” value in the data set with Male Swiss Webster mice (method #1 (ED50)) and in the data set on Male Swiss Webster mice (method #2 (AD50)) were 2.0 (0.6-6.3) and 0.91 (0.11-7.63), respectively. Besides, in the data set with Male Swiss Webster mice, the “ED50 (nmol/mouse) (95% CL)” value is given as 11.3 (4.2-30.4) nmol/mouse. In the data set with Male Swiss Webster mice, the “AD50 (nmol/mouse) (95% CL)” value is recorded as 25.9 (5.9-113) nmol/mouse. In data set [1], the Solubility entry was “Soluble in water and DMSO”.
On to `C[C@H](NC(=O)[C@H](CCC(N)=O)NC(=O)CN)C(=O)N[C@@H](CCCN=C(N)N)C(=O)O` [Peptide 3, H-Gly-Gln-Ala-Arg-OH] (H-GQAR-OH), for which the Solubility result in data set [1] was “Soluble in water and DMSO”.
Take `C[C@H](NC(=O)[C@H](CCC(N)=O)NC(=O)CN)C(=O)N[C@@H](CCCNC(=N)N)C(=O)O` [Peptide 3, H-Gly-Gln-Ala-Arg-OH] (H-GQAR-OH): the “Potency ratio (95% CL)” value in the data set with Male Swiss Webster mice (method #1 (ED50)) was 5.7 (2.0-15.9); in the data set with Male Swiss Webster mice (method #2 (AD50)) it was 6.92 (0.84-56.2)*. For the same compound, the “ED50 (nmol/mouse) (95% CL)” value with Male Swiss Webster mice is 3.9 (1.7-9.1) nmol/mouse. Further, in the data set with Male Swiss Webster mice, the “AD50 (nmol/mouse) (95% CL)” value was 3.41 (0.8-14.6) nmol/mouse.
As for `C[C@H](NC(=O)[C@H](CCC(N)=O)NC(=O)[C@@H](N)CCCNC(=N)N)C(=O)N[C@@H](CCCNC(=N)N)C(=O)O` [Peptide 4, H-Arg-Gln-Ala-Arg-OH], in the data set with Male Swiss Webster mice (method #1 (ED50)), the “Potency ratio (95% CL)” value is on record as 4.5 (1.4-14.3). In addition, in the data set with Male Swiss Webster mice (method #2 (AD50)), the “Potency ratio (95% CL)” value was 1.86 (0.27-12.8). Also, in the data set with Male Swiss Webster mice, the “ED50 (nmol/mouse) (95% CL)” value is 4.9 (1.8-13.2) nmol/mouse and the “AD50 (nmol/mouse) (95% CL)” value is reported as 12.7 (3.5-46.1) nmol/mouse. For the same compound, the Solubility entry in data set [1] was “Soluble in water and DMSO”.
`C[C@@H]1NC(=O)[C@H](CCC(N)=O)NC(=O)CNC(=O)[C@H](CCCNC(=N)N)NC1=O` [Peptide 5, cyclic(-Gly-Gln-Ala-Arg-)] (cyclo(ARGQ)): the “Potency ratio (95% CL)” value with Male Swiss Webster mice (method #1 (ED50)) is reported as 7.7 (1.3-46.6). For the same compound, the “Potency ratio (95% CL)” value with Male Swiss Webster mice (method #2 (AD50)) is on record as 1.77 (0.11-28.1). Also, in the data set on Male Swiss Webster mice, the “ED50 (nmol/mouse) (95% CL)” value is 2.9 (0.8 -9.8) nmol/mouse and the “AD50 (nmol/mouse) (95% CL)” value is recorded as 13.3 (1.6-114) nmol/mouse. In addition, the Solubility entry in data set [1] was “Soluble in water and DMSO”.
As to `C[C@@H]1NC(=O)[C@H](CCC(N)=O)NC(=O)CNC(=O)[C@H](CCCNC(=N)N)NC(=O)[C@H](C)NC(=O)[C@H](CCC(N)=O)NC(=O)CNC(=O)[C@H](CCCNC(=N)N)NC1=O` [Peptide 5B] (cyclo(ARGQARGQ)), the “Potency ratio (95% CL)” value in the data set with Male Swiss Webster mice (method #2 (AD50)) is given as 0.93 (0.22-3.9). In the data set with Male Swiss Webster mice, the “AD50 (nmol/mouse) (95% CL)” value was 25.3 (11.6-55.1) nmol/mouse. Further, in data set [1], the Solubility result is “Soluble in water and DMSO”.
Turning to `C[C@@H]1NC(=O)[C@H](CCC(N)=O)NC(=O)[C@H](CCCNC(=N)N)NC(=O)[C@H](CCCNC(=N)N)NC1=O` [Peptide 6, cyclic(-Arg-Gln-Ala-Arg-)], the “Potency ratio (95% CL)” value in the data set with Male Swiss Webster mice (method #2 (AD50)) is reported as 0.94 (0.22-3.98). Besides, in the data set on Male Swiss Webster mice, the “AD50 (nmol/mouse) (95% CL)” value is listed as 25.1 (11.3-55.6) nmol/mouse. Besides, the Solubility entry in data set [1] is “Soluble in water and DMSO”.
Regarding `C[C@@H]1NC(=O)[C@H](CCC(N)=O)NC(=O)[C@H](CCCNC(=N)N)NC(=O)[C@H](CCCNC(=N)N)NC(=O)[C@H](C)NC(=O)[C@H](CCC(N)=O)NC(=O)[C@H](CCCNC(=N)N)NC(=O)[C@H](CCCNC(=N)N)NC1=O` [Peptide 6B] (cyclo(ARRQARRQ)), in data set [1], the Solubility entry is “Soluble in water and DMSO”.
On to `N=C(N)NCCC[C@@H]1NC(=O)[C@H](Cc2ccc(O)cc2)NC(=O)[C@H](CCC(N)=O)NC(=O)CNC1=O` [Peptide 7, cyclic(-Gly-Gln-Tyr-Arg-)] (cyclo(GQYR)), for which the “Potency ratio (95% CL)” value in the data set with Male Swiss Webster mice (method #2 (AD50)) is listed as 5.6 (1.25-25)*. The “AD50 (nmol/mouse) (95% CL)” value in the data set on Male Swiss Webster mice is 4.21 (1.80-9.87) nmol/mouse.
As for `NC(=O)CC[C@@H]1NC(=O)CNC(=O)[C@H](CCCN=C(N)N)NC(=O)[C@H](Cc2ccc(O)cc2)NC1=O` [Peptide 7, cyclic(-Gly-Gln-Tyr-Arg-)] (cyclo(GQYR)), in data set [1], the Solubility result is “Soluble in water and DMSO”.
For `N=C(N)NCCC[C@H]1NC(=O)[C@H](Cc2ccc(O)cc2)NC(=O)[C@H](CCC(N)=O)NC(=O)CNC1=O` [Peptide 8, cyclic(-Gly-Gln-Tyr-D-Arg-)] (cyclo(GQY[dR])), the “Potency ratio (95% CL)” value with Male Swiss Webster mice (method #2 (AD50)) is reported as 5.35 (1.04-26.4)*. The “AD50 (nmol/mouse) (95% CL)” value in the data set with Male Swiss Webster mice is listed as 4.41 (1.7-11.9) nmol/mouse.
Taken in the same sequence, the figures for `N=C(N)NCCC[C@H]1NC(=O)[C@H](Cc2ccc(O)cc2)NC(=O)[C@@H](CCC(N)=O)NC(=O)CNC1=O` [Peptide 9, cyclic(-Gly-D-Gln-Tyr-D-Arg-)] (cyclo(G[dQ]Y[dR])) were 10.6 (3.6-31.0)* and 2.23 (1.45-3.43) nmol/mouse.
For `NC(=O)CC[C@H]1NC(=O)CNC(=O)[C@@H](CCCN=C(N)N)NC(=O)[C@H](Cc2ccc(O)cc2)NC1=O` [Peptide 9, cyclic(-Gly-D-Gln-Tyr-D-Arg-)] (cyclo(G[dQ]Y[dR])), in data set [1], the Solubility result is “Soluble in water and DMSO”.
On to H-RQGRTLYGF-OH [Peptide 13], for which the “Potency ratio (95% CL)” value in the data set on Male Swiss Webster mice (method #1 (ED50)) is 3.0 (0.8-11.2). Also, the “Potency ratio (95% CL)” value in the data set on Male Swiss Webster mice (method #2 (AD50)) was 2.43 (0.2-18). Further, in the data set on Male Swiss Webster mice, the “ED50 (nmol/mouse) (95% CL)” value is on record as 7.5 (2.3 -24.4) nmol/mouse and the “AD50 (nmol/mouse) (95% CL)” value is 9.7 (2.5-37.4) nmol/mouse.
